Results from US20190183939A1, “CELL THERAPY USING MIDBRAIN-TYPE NEURAL STEM CELLS TREATED WITH VITAMIN C” (INDUSTRY-UNIVERSITY COOPERATION FOUNDATION HANYANG …, priority 2017, published 2019).

Key:
[1] = tested on: Foxa2 and Lmx1a promoters; assay: DIP-qPCR and ChIP-qPCR on Foxa2 and Lmx1a promoters; type: cell-based, rat
Source text: (§1) Foxa2 and Nurr1 binding sites were identified using the Jaspar database (http://jaspar.genereg.net/) using an 80% score threshold. Predicted Foxa2 and Nurr1 binding sites were coupled with phylogenetic footprinting to eliminate spurious predictions with specified position weight matrix (PWM) settings, as described in the following reference. [Sandelin, A., and Wasserman, W. W. (2004). Constrained binding site diversity within families of transcription factors enhances pattern discovery bioinformatics. Journal of molecular biology 338, 207-215] (Table 2). ChIP and DIP assays were carried out as described in the following reference. [Prolonged membrane depolarization enhances midbrain dopamine neuron differentiation via epigenetic histone modifications. Stem Cells 29, 1861-1873]. Briefly, chromatin or genomic DNA was sheared to an average of 200-500 bp in length using a sonication Bioruptor (BMS, Seoul, Korea) and immunoprecipitated using the antibodies listed in Table 1. Immunoprecipitated DNA fragments were collected using magnetic beads (Invitrogen), purified, and subjected to real-time PCR using the primers listed in Table 3. The comparative cycle threshold method was used to quantify the results. Data were normalized to the input DNA.

VM-NSCs = assay: Cell growth curves and population doubling level during NSC expansion; type: cell-based, rat; settings: up to P1
Method: (§2) The cell growth profile during NSC expansion with several cell passages was generated by counting the number of viable cells at the end of each passage. Cell expansion of each NSC passage was further estimated by the population doubling level (PDL, the level at which the number of cells is doubled), which was determined by log(N/NO)/log 2 (where N is the number of cells at the end of each passage; NO is the number of cells plated initially (1×10^5 cells/cm^2)). DA neuronal cell survival in the absence or presence of toxic insults (500-1000 uM of H2O2 or 6-OHDA) was determined by counting viable TH^+ cells after staining. General cell death and DNA damage were estimated by ethidium heterodimer 1 (EthD1) (Molecular Probes) and γH2AX staining, respectively.

[2] = tested on: human TH promoter regions; assay: DIP-qPCR/ChIP-qPCR on human TH promoter; type: cell-based
Source text: as §1

[3] = tested on: GAD67, TPH2 and GFAP promoters; assay: DIP-qPCR and ChIP-qPCR on GAD67, TPH2 and GFAP promoters; type: cell-based, rat; settings: VC administration to proliferating VM-NSCs
Source text: as §1

TET = assay: Tet enzyme activity in nuclear fraction; type: biochemical, rat; settings: VC 200 μM, 4 days of proliferation, D0
Method: (§3) TET and JMJD3 activities were measured using Epigenase™ 5mC hydroxylase TET Activity/Inhibition Assay Kit and Epigenase™ JMJD3/UTX Demethylase Activity/Inhibition Assay Kit (Epigentek, Farmingdale, N.Y.), respectively. Briefly, cells from two 10 cm-dishes were harvested after 4 days of proliferation with or without VC (200 μM) treatment. Nuclear fractions were obtained from the cells using the EpiQuik nuclear extraction kit (Epigentek), and subjected to enzyme activity analyses.

JMJD3 = assay: Jmjd3 enzyme activity in nuclear fraction; type: biochemical, rat; settings: VC 200 μM, 4 days of proliferation
Method: as §3

[4] = tested on: TH+ DA neurons differentiated from VM-NSCs; assay: Morphologic and functional maturation of DA neurons; type: cell-based, rat; settings: VC during expansion
Method: To estimate morphological maturation, total fiber lengths emanating from TH+DA neuronal cells were measured. The pre-synaptic activity of DA neurons was determined by measuring the levels of DA neurotransmitter released in the differentiated VM-NSC cultures. Media incubated for 2 days (differentiation day 13-15) were collected and used in the DA level determinations using an ELISA kit (BA E-5300, LDN). In addition, DA release evoked by membrane depolarization was estimated by incubating the cultures (at differentiation day 15) in fresh N2 media in the presence or absence of 56 mM KCl for 30 min. The evoked DA release was calculated by subtracting the DA release without KCl from the DA level with KCl.

[5] = tested on: cultures differentiated from VM-NSCs; assay: Differentiated cell survival/death, DNA damage and resistance against toxins; type: cell-based, rat
Method: as §2

VM-NSC cultures = assay: Marker expression by immunocytochemistry and real-time PCR; type: cell-based, rat
Method: (§4) Cultured cells and cryosectioned brain slices were fixed with 4% paraformaldehyde (PFA), and blocked for 40 minutes in blocking solution (Blocking solution: 1% BSA+0.3% Triton X-100). For 5hmC and 5mC staining, the fixed cells were incubated with 2 N HCl for 20 minutes before the blocking reaction. The samples were incubated overnight at 4° C. in the blocking solution containing the primary antibodies listed in Supplemental Table 1. Secondary antibodies tagged with Alexa 488 (1:200, Invitrogen, Carlsbad, Calif.) and Cy3 (1:200, Jackson Immunoresearch Laboratories, West Grove, Pa.) were applied. Stained samples were mounted in Vectashield medium containing 40,6-diamidino-2-phenylindole (DAPI; Vector Laboratories, West Grove, Pa.) and analysed under an epifluorescence (Leica, Wetzlar, Germany) or confocal microscope (Leica TSP SP5).
(§5) Immunostained cells were counted in 10-20 random areas of each culture coverslip using an eyepiece grid at a magnification of 200×. Data are expressed as the mean±SEM of three to eight independent cultures. For every figure, statistical tests are justified as appropriate. Statistical comparisons were made using Student's t-test (unpaired) or one-way ANOVA followed by Tukey's post hoc analysis using SPSS® Statistics 21; IBM Inc. The relevant n, P-values, and statistical analysis methods are indicated in each figure legend.

[6] = tested on: TH+ DA neurons differentiated from VM-NSCs; assay: Co-expression of midbrain-specific markers in differentiated TH+ DA neurons; type: cell-based, rat; settings: P1 cultures treated with VC during expansion, D6
Method: as §4, §5

## O=C1O[C@H]([C@@H](O)CO)C(O)=C1O [VC, L-ascorbic acid]
[1]; ChIP-qPCR, D0
  binding of Tet1, Jmjd3 and Jmjd2 proteins to Foxa2 and Lmx1a promoter regions: increased binding
[1]; MeDIP-qPCR, VC-treated NSCs
  5mC levels in Foxa2 promoter regions: reduced
[1]; hMeDIP-qPCR, VC-treated NSCs
  5hmC in Foxa2 promoter regions: more abundant
VM-NSCs
  VM-NSC survival and proliferation: none of the anti-oxidant treatments tested, including VC, significantly altered
[2]
  H3K9m3/H3K27m3 levels in human TH promoter regions: undetectable
[2]; two consensus Nurr1 binding sites, D6
  levels of 5hmC at human TH promoter regions: enhanced
[3]
  epigenetic codes on TPH2 and GAD67 genes: did not affect
TET
  Tet enzyme activity in nuclear fractions: greatly enhanced
JMJD3
  Jmjd enzyme activity in nuclear fractions: increase
[4]; D15
  total fiber lengths per TH+ DA neuron: 164 um
[4]; medium 48 hr (D13-15) and KCl evoked 30 min
  presynaptic DA neuronal function measured by DA release: greater
[4]; vs untreated control
  synapsin+ puncta in TH+ DA neuron neurites: more abundantly localized
[5]; 500 and 1000 μM for 8 hours at D8, VC during expansion
  DA neurons died after exposure to H2O2 or 6-OHDA: remarkably lower proportions
[5]; D12 as printed, VC during expansion
  γH2AX foci, % cells with >3 foci: 24.3%
[5]; differentiation D8, VC during NSC expansion and passaging
  cell death (EthD-1+ dead cell counting): considerably reduced
VM-NSC cultures; D0, VC during expansion
  percentage of cells expressing Foxa2 and Lmx1a: enhanced
VM-NSC cultures; D2, VC during proliferating NSC stage
  percentage of Nurr1+ cells: greater
VM-NSC cultures; VC during proliferating VM-NSC stage
  mRNA expression of GFAP and GFAP+ astrocyte yields: significantly enhanced
VM-NSC cultures; VC during proliferation
  mRNA expression levels of TPH2 and GAD67: no significant alteration
VM-NSC cultures; proliferating VM-NSC cultures
  expression of Nestin, Sox2 and Otx2 markers: not altered
VM-NSC cultures; real-time PCR, D0
  mRNA levels of Foxa2 and Lmx1a: enhanced
[6]
  TH+ DA neurons expressing Foxa2: 98%
  TH+ DA neurons expressing Lmx1a: 91%
  TH+ DA neurons expressing Nurr1: 93%
